Where “and” joins values, the source holds several entries; their conditions need not be identical. Equal entries are not always repeated. Where two headings read alike, the source gives them in different places.
Assays:
[1] = plasma, fed male Cynomolgus Monkeys, PO 10 mg/kg, animal 168777C
Description: Three male Cynomolgus Monkeys were administrated a single oral dose at 10 mg/kg. The oral vehicle was 10% (w/v) HP-β-CD in water.
Male Cynomolgus Monkeys were purchased from Topgene Biotechnology. The animals were 2-5 years old with body weights of 2.0-5.0 kg on the dosing date. The animals were housed in a 12-hour light/12-hour dark cycle environment and had free access to food and water.
All animals for PO administration were fasted overnight prior to dosing and will be fed approximately 2 hours after dosing.
Three male Cynomolgus Monkeys were assigned to this study. […] The dosing regimens and formulation (vehicle) compositions are described in the following table below:
Animals were weighed prior to dose administration on the day of dosing for calculating the actual dose volume. The dosages were prepared as illustrated in the table below:
Blood samples were taken at the following times:
Whole blood samples were gently inverted several times to ensure anticoagulation then placed on wet ice prior to centrifugation. Within 30 minutes of collection, the samples were centrifuged at approximately 4,000×g (force) for 5 minutes at 2 to 8° C. to obtain plasma. The stabilizing agent, ascorbic acid at 200 mg/mL, was added in a proportion of 10% in plasma. The plasma samples were stored in a freezer at −75±15° C. prior to analysis. The completion time from collection was less than 60 min. The resultant plasma samples will be immediately separated divided into 2 aliquots (˜75 μL each) and transferred to cryogenic vial. Samples will be maintained on wet ice throughout processing, and stored in a freezer at −75±15° C. prior to analysis. Samples should be protected from ambient light (under sodium lamp).
Calibration standard working solutions were prepared at concentrations of 2, 5, 10, 20, 100, 500, 1000, 5000, 10000 ng/mL by serial dilution of the standard stock solution in 1:1 acetonitrile:water. Quality control working solutions at concentrations of 5, 10, 20, 500 and 8000 ng/mL were prepared by serial dilution of the standard stock solution in 1:1 acetonitrile:water. The QC samples were prepared on the day of analysis in the same way as calibration standards.
Samples were prepared with 5 μL of each calibration standard working solution (2, 5, 10, 20, 100, 500, 1000, 5000, 10000 ng/mL) added to 50 μL of the blank Cynomolgus Monkeys plasma to achieve calibration standards concentrations of 0.2, 0.5, 1, 2, 10, 50, 100, 500, 1000 ng/mL (relative to a 50-4, plasma aliquot). Quality Control (QC) samples at 0.5 ng/mL (low-1), 1 ng/mL (low-2), 2 ng/mL (low-3), 50 ng/mL (mid) and 800 ng/mL (high) for plasma were prepared independently for those used for the calibration curves.
Total volumes of 55 μL of standards, 55 μL of QC samples and 55 μL of unknown samples (50 μL of plasma with 5 μL of 1:1 acetonitrile:water) were added to 200 μL of acetonitrile containing IS to precipitate proteins. Then the samples were vortexed for 30 sec. […] All of the samples were processed on ice.
The LC-MS/MS system consisted of two Shimadzu LC-30AD pumps, a DGU-20A5R degasser, a Rack changer II and an AB Sciex Triple Quad 5500 LC/MS/MS mass spectrometer. Chromatographic separation was performed on Agilent ZORBAX XDB-Phenyl 5 μm (50×2.1 mm) at room temperature. The mobile phase was composed of A: 5% Acetonitrile/95% water (0.1% Formic acid); B: 95% Acetonitrile/5% water (0.1% Formic acid). The flow rate was 0.6 mL/min. The injection volume was 2 μL.
A multiple reaction monitoring (MRM) method was selected for quantitative analysis. […] The instrument parameters were set as follows: ion spray voltage: 5500 V; curtain gas: 40 psi; ion source gas 1: 50 psi; ion source gas 2: 50 psi; temperature: 450° C. The compound dependent parameters are listed as follows:
HPLC flow rate was set at 0.6 mL/min with the following conditions:

in vivo = details: male, SD, rat; for AUC(0-inf): AUCInf; for AUC(0-t): AUClast; for MRT inf: MRTInf
Description: The vehicle for the IV, subcutaneous, PO and IN formulation contained “0.1% sodium metabisulfite solution”.
Male SD rats were purchased from Si Bei Fu Laboratory Animal Technology Co. Ltd (Beijing, China). The animals were about 8 weeks old with body weights of 200-300 g on the dosing date. The animals were housed in a 12-hour light/12-hour dark cycle environment and had free access to food and water. All animals were fasted overnight and fed after 4 hours collection.
Plasma samples were collected from jugular vein at each time point after IV, subcutaneous, PO and IN administrations.
About 200 μL of blood samples were collected from each animal via jugular vein. These blood samples were placed into the tubes containing K2EDTA. And centrifugation at 3000 g for 10 minutes in a 4° C. centrifuge. The completion time from collection was less than 30 min. The stabilizing agent of ascorbic acid at 200 mg/mL was added in a proportion of 10% in plasma. The plasma samples were stored in a freezer at −75±15° C. prior to analysis. The completion time from collection was less than 60 min.
Calibration standard working solutions were prepared at concentrations of 2, 5, 10, 20, 50, 100, 500, 1000, 5000 and 10000 ng/mL by serial dilution of the standard stock solution in 50% acetonitrile in water. Quality control working solutions at concentrations of 5, 10, 20, 500 and 8000 ng/mL were prepared by serial dilution of the standard stock solution in 50% acetonitrile in water. These QC samples were prepared on the day of analysis in the same way as calibration standards.
For plasma samples, 2 μL of each calibration standard working solution (2, 5, 10, 20, 50, 100, 500, 1000, 5000 and 10000 ng/mL) was added to 20 μL of the blank SD rat plasma (with 10% 200 mg/mL ascorbic acid) to achieve calibration standards of 0.2-1000 ng/mL (0.2, 0.5, 1, 2, 5, 10, 50, 100, 500, 1000 ng/mL) in a total volume of 22 μL. Quality Control (QC) samples at 0.5 ng/mL (low-1), 1 ng/mL (low-2) and 2 ng/mL (low-3), 50 ng/mL (mid), 800 ng/mL (high) for plasma were prepared independently for those used for the calibration curves. These QC samples were prepared on the day of analysis in the same way as calibration standards. The total volumes of 22 μL of standards, 22 μL of QC samples and 22 μL of unknown samples (20 μL of unknown plasma (with 10% 200 mg/mL ascorbic acid) with 2 μL 50% acetonitrile) were added to 200 μL of acetonitrile containing IS to precipitate proteins. Then the samples were vortexed for 30 sec. After centrifugation at 4° C., 4700 rpm for 30 min, and supernatant was diluted 2 times with water, 10 μL of the diluted supernatant was injected into the LC-MS/MS system for quantitative analysis.
All the samples were processed on ice.
The LC-MS/MS system consisted of two Shimadzu LC-30AD pumps, a DGU-20A5R degasser, a Rack changer II and LCMS-8060 LC/MS/MS instrument mass spectrometer.
OD-3R Particle size 3 μm 4.6 mm×150 mm column at room temperature. The mobile phase was composed of A: Water (5 mM Ammonium Acetate); B: Ethanol (5 mM Ammonium Acetate). The flow rate was 0.5 mL/min. The injection volume was 10 μL.
A multiple reaction monitoring (MRM) method was selected for quantitative analysis. […] The instrument parameters were set as follows: ion spray voltage: 8060; heating gas flow: 10 L/min; interface temperature: 250° C.; DL temperature: 220° C.; heat block temperature: 400° C.; drying gas flow: 10 L/min.
Data acquisition was performed by Lab Solutions version 5.89 Software (Shimadzu). All concentration data was reported with 3 significant figures. Data statistics were performed using Excel 2010 software.
The linear trapezoidal algorithm was used for AUC calculation.

[2] = for AUC_%Extrap_obs: Mean, male C57BL/6J mice; for Brain concentration, Mean / Plasma concentration, Mean / CSF concentration / plasma concentration: male, C57BL/6J, mouse, in vivo, po, 25 mg/kg
Description: Male C57BL/6J mice were purchased from Si Bei Fu Laboratory Animal Technology Co. Ltd (Beijing, China). The animals were about 8 weeks old with body weights of 20-30 g on the dosing date. The animals were housed in a 12-hour light/12-hour dark cycle environment and had free access to food and water. All animals were fasted overnight and fed after 4 hours collection.
The formulation was freshly made prior to use. Preparation of formulation for oral dosing are as follows:
For Group 1 and 2, blood, CSF and brain samples were collected from 3 mice at the following time points.
Plasma samples: About 30 μL or 300 μL of blood samples were collected from each animal via dorsal metatarsal vein or heart. These blood samples were placed into the tubes containing K2EDTA. And centrifugation at 3000 g for 10 minutes in a 4° C. centrifuge. The completion time from collection was less than 30 min. The stabilizing agent of ascorbic acid at 200 mg/mL was added in a proportion of 10% in plasma. The plasma samples were stored in a freezer at −75±15° C. prior to analysis. The completion time from collection was less than 60 min.
Brain and CSF Samples: The animals were fully exsanguinated with a rising concentration of CO2 gas prior to CSF and brain collection.
For CSF collection, make an incision by scissors on the neck of the rats, and the foramen magnum is exposed to the sight of scientist. Use a syringe with a venoclysis needle to sample the CSF, the tip of the needle is insert into the membrane of foramen magnum about 1-2 mm, and then pull the stopcock a small length of the syringe to make a negative pressure, then the CSF fluids to the tube. Watch the fluid in the tube and pull the stopcock slowly, when the amount of the CSF is enough, stop and split the needle and the syringe to ensure there is no negative pressure in the tube. Then cut off the needle and collect the CSF fluid. If we could see the blood in the tube, stop immediately, split the needle and the syringe, and then cut off between the blood and CSF to ensure there is no blood in the CSF fluid. Then collect the CSF fluid. The stabilizing agent of ascorbic acid at 200 mg/mL was added in a proportion of 10% in CSF. The completion time from collection was less than 60 min.
For brain collection. Brain samples were collected at adopted time point, and washed 3 times with cold saline, then dried with clean gauze and put into the weighed tube, quick frozen in ice box and kept at −75±15° C. All brain samples were weighted and homogenized with phosphate buffered saline (PBS) by brain weight (g) to PBS volume (mL) ratio 1:3 before analysis. The stabilizing agent of ascorbic acid at 200 mg/mL was added in a proportion of 10% in Brain homogenate. The actual concentration was the detected value multiplied by the dilution factor. Brain samples were collected at designed time point, quickly homogenized and kept at −75±15° C. The completion time from collection was less than 60 min.
Calibration standard working solutions were prepared at concentrations of 0.2, 0.5, 1, 2, 5, 10, 50, 100, 500, 1000 ng/mL by serial dilution of the standard stock solution. These QC samples were prepared on the day of analysis in the same way as calibration standards.
Plasma: The desired serial concentrations of working solutions were achieved by diluting stock solution of analyte with 50% acetonitrile in water solution. 10 μL of working solutions (0.1, 0.2, 0.5, 1, 2, 5, 10, 50, 100, 500, 1000 ng/mL) were added to 10 μL of the blank C57BL/6J Mice plasma to achieve calibration standards of 0.1˜1000 ng/mL (0.1, 0.2, 0.5, 1, 2, 5, 10, 50, 100, 500, 1000 ng/mL) in a total volume of 20 μL.

[3] = 0.88 mg/kg, plasma concentration
[4] = iv, 0.88 mg/kg, plasma concentration
[5] = iv, 0.88 mg/kg, plasma concentration, Mean

SMILES: CN1CCc2cccc3c2[C@@H]1Cc1ccc(O)c(O)c1-3
- AUClast/D [1]: 4.26 mg·h/mL
- concentration at 0.5 h (in vivo): 31 ng/mL
- concentration at 1 h (in vivo): 8.96 ng/mL
- concentration at 2 h (in vivo): 6.87 ng/mL
- concentration at 8 h (in vivo): 0.651 ng/mL
- concentration at […] (in vivo): 114 ng/mL
- concentration at […] (in vivo; 0.88 mg/kg): 119 ng/mL
- concentration at 2 min (in vivo; [3]): 42.7 ng/mL
- concentration at 0.5 h (in vivo; [3]): 40.5 ng/mL
- concentration at 1 h (in vivo; [3]): 5.76 ng/mL
- concentration at 2 h (in vivo; [3]): 1.52 ng/mL
- concentration at 8 h (in vivo; [3]): 0.877 ng/mL
- concentration at […] (in vivo; [3]): 162 ng/mL and 151 ng/mL and 107 ng/mL
- AUC(0-inf) (in vivo; iv, 0.88 mg/kg): 86.6 ng·h/mL
- AUC(0-t) (in vivo; iv, 0.88 mg/kg): 83.2 ng·h/mL
- C0 (in vivo; iv, 0.88 mg/kg, C0): 527 ng/mL
- clearance (in vivo; iv, 0.88 mg/kg, Cl): 169 mL/min/kg
- MRT inf (in vivo; iv, 0.88 mg/kg): 1.26 h
- Vd (in vivo; iv, 0.88 mg/kg, Vss): 12.8 L/kg
- concentration at 2 min (in vivo; [4]): 353 ng/mL
- concentration at 0.5 h (in vivo; [4]): 17.8 ng/mL
- concentration at 1 h (in vivo; [4]): 7.6 ng/mL
- concentration at 2 h (in vivo; [4]): 4.32 ng/mL
- concentration at 8 h (in vivo; [4]): 0.88 ng/mL
- concentration at […] (in vivo; [4]): 104 ng/mL
- concentration at 2 min (in vivo; [5]): 339 ng/mL
- concentration at 0.5 h (in vivo; [5]): 16.4 ng/mL
- concentration at 1 h (in vivo; [5]): 6.37 ng/mL
- concentration at 2 h (in vivo; [5]): 3.67 ng/mL
- concentration at 8 h (in vivo; [5]): 0.777 ng/mL
- AUC(0-inf) (in vivo; sc, 0.88 mg/kg): 71.2 ng·h/mL
- AUC(0-t) (in vivo; sc, 0.88 mg/kg): 70.2 ng·h/mL
- Cmax (in vivo; sc, 0.88 mg/kg, Cmax): 141 ng/mL
- MRT inf (in vivo; sc, 0.88 mg/kg): 0.873 h
- AUC_%Extrap_obs ([2]; CSF, last day (Day 4) of repeated oral dose 25 mg/kg): 3.18%
- AUC_%Extrap_obs ([2]; brain, single oral dose 25 mg/kg): 18.5%
- Brain concentration, Mean ([2]; 0.5 h): 90 ng/g
- Plasma concentration, Mean ([2]; 0.5 h): 453 ng/mL
- Brain concentration, Mean ([2]; 1 h): 36.3 ng/g
- CSF concentration ([2]; 1 h): 3.06 ng/mL
- Plasma concentration, Mean ([2]; 1 h): 153 ng/mL
- Brain concentration, Mean ([2]; 2 h): 21.9 ng/g
- Brain concentration, Mean ([2]; 3 h): 6.80 ng/g
- Plasma concentration, Mean ([2]; 3 h): 48.2 ng/mL
- CSF concentration ([2]; 4 h): 3.42 ng/mL
- plasma concentration ([2]; 8 h): 0.599 ng/mL
- plasma concentration ([2]; 12 h): 0.150 ng/mL

— patent publication US20230141988A1, “PHARMACEUTICAL COMPOSITION FOR USE IN THE TREATMENT OF NEUROLOGICAL DISEASES” (Aclipse One Inc., priority 2020, published 2023)
